This note sets out measurements from patent US6355785B1, “Guanosine-rich oligonucleotide integrase inhibitors” (Aronex Pharmaceuticals, Inc., priority 1993, dated 2002).

On the set-up of series [1]: species or system cynomolgus monkeys. Particulars: cynomolgus monkey, in vivo. On the procedure: Serum chemistry parameters. Serum chemistry was determined pre-study, on day 24 (one day after the 12th dose), and on day 37 in the recovery monkeys. The following were determined sodium, potassium, chloride, carbon dioxide, total bilirubin, direct bilirubin, indirect bilirubin alkaline phosphatase, lactate dehydrogenase, aspartate aminotransferase, alanine aminotransferase, gammaglutamyltransferase, calcium, phosphorus, glucose, urea nitrogen, creatinine, uric acid total protein, albumin, globulin, cholesterol and triglycerides. Serum chemistry was determined at Sierra Nevada Laboratories (Reno, Nev.).

Series [2] concerns the target T1, HIV-1 integrase deletion mutant IN50-288 (Human immunodeficiency virus type 1 group M subtype B, UniProt P12497).
T1 construct: purchased gift of Drs; T. Jenkins and R. Craigie, NIDDK, NIH (not bought)
The experiment in a line: Disintegration assay, IN50-288. In kind it is biochemical. Particulars: IN50-288, 3 μM.

For another series, the system named is HIV-1RF. The experiment in a line: HeLa-CD4-LTR-β-galactosidase cell virus infection assay. The class given is cell-based.
In another series the test system is MT2. In kind it is cell-based, human. On the procedure:
(§1) Cytotoxicity Analysis. The cytotoxicity of T30177 was assayed as described above. […] The degree of cell proliferation was determined according to the manufacturer's instructions.
(§2) Cytotoxicity Assays. The cytotoxicity of T30177 was determined using several different cell lines and primary human cells as described above. The cytotoxicity profile obtained for log phase growing cells was variable depending upon the cell line used, while the slower growing PBMCs, PBLs, and macrophages all tolerated the compound at concentrations exceeding 100 μM as monitored using the trypan blue exclusion, [^3H]thymidine uptake, or [^3H]leucine uptake techniques.

A further series deals with AA5. In kind it is cell-based, human. The method, then:
as §1, §2

The subject of another series is CEMx174. The class given is cell-based, human. On the procedure:
as §1, §2

The subject of a further series is CEM-SS. In kind it is cell-based, human. On the procedure:
as §1, §2

Another series relates to U937. In kind it is cell-based, human. The method, then:
as §1, §2

Another series relates to MT4. The class given is cell-based, human. On the procedure:
as §1, §2

Another series deals with SIVMAC251. In kind it is cell-based, simian immunodeficiency virus. Particulars: SIVMAC251, MT4; read-out: IC50 virus production.
For series [3] the following is noted: human, up to 236 ug/mL.

“5′-gtggtgggtgggtgggt-3′ (GTGGTGGGTGGGTGGGT; phosphorothioate termini, further chemistry not given here) [T30177, pPT version of parent compound I100-15, 17 mer]”: the “serum chemistry or urinalysis parameters” value in series [1] is on record as “no treatment-related changes”. The inhibition of disintegration in [2] is recorded as no more than 30%. In addition, the IC50 in the series with HIV-1RF (HIV-1RF, read-out: IC50 β-galactosidase production, virus infection assay) is 0.009 µM. The “direct effect on β-galactosidase enzyme activity” value with HIV-1RF (up to 10 μM, control experiment) is recorded as “no observable direct effect”. Also, the CC50 is 61.2 ± 5.5 µM in the series on MT2; 94.2 ± 3.1 µM with AA5; 50 ± 5.2 µM with CEMx174; 92 ± 3 µM in the series with CEM-SS; greater than 100 µM with U937; 70 ± 7.1 µM in the series on MT4. Besides, the TC25 with MT2 is 27 ± 3.5 µM; in the series with AA5, 45.66 ± 2.0 µM; in the series on CEMx174, 10 ± 2.5 µM; in the series on CEM-SS, 50.8 ± 3.2 µM; in the series on U937, greater than 100 µM; in the series on MT4, 34 ± 4.0 µM. The TC95 in the series on MT2, with AA5, in the series with CEMx174, in the series with CEM-SS, in the series with U937 and in the series on MT4 was greater than 100 µM each time.

Consider “5′-gtggtgggtgggtgggt-3′ [T30177] (GTGGTGGGTGGGTGGGT; phosphorothioate termini, further chemistry not given here)”, for which, in the series on SIVMAC251, the IC50 stood at 1.5 ± 1.2 µM. Further, the “complement CH50” value in [3] was “no effect”. Besides, the IC50 virus-induced cytopathogenicity in the series on Punta Toro virus (Punta Toro virus) was greater than 200 µg/mL. Moreover, the “MCC minimum concentration altering normal cell morphology” value in the series with Punta Toro virus (Punta Toro virus assay) was greater than 200 μg/mL.
